Holding throughout (experiment): NCI anticancer screen, dose series, 48 h
Experiment [1] has as its system UACC-257 melanoma.
Experiment [2] concerns UO-31 renal.
Experiment [3] deals with COLO 205 colon.
For experiment [4], the system named is SK-MEL-5 melanoma.
The subject of experiment [5] is SK-MEL-2 melanoma.
For experiment [6], the system named is LOX IMVI melanoma.
Experiment [7] has as its system IGROV1 ovarian.
Experiment [8] concerns MALME-3M melanoma.
Experiment [9] concerns U251 CNS.
Experiment [10] relates to SK-OV-3 ovarian.

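Grown in 96-well plates, cells were treated for 48 hours with each compound at five concentrations. Insufficient inhibition: endpoint recorded as highest concentration tested. GI50 is the concentration that inhibits growth by half. TGI marks complete inhibition of growth.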

For `N.N.N.N.O=S([O-])[O-].[Co+3].[N-]=[N+]=[N-]`, the GI50 in experiment [1], in experiment [2], in [3], in experiment [4], in [5] and in [6] was over 100 µM throughout. Moreover, the GI50 in experiment [7], in [8], in experiment [9] and in experiment [10] was over 100 µM each time. Besides, the TGI in experiment [1], in [2], in experiment [3], in experiment [4], in experiment [5] and in [6] was over 100 µM each time. The TGI in [7], in experiment [8], in [9] and in experiment [10] was over 100 µM each time.

Take `COc1c(OC2OC(C)C(O)C(O)C2O)c(OC)c2oc(-c3ccc(O)cc3)cc(=O)c2c1O` (stereo not given): the GI50 was 3.97 µM in experiment [1]; 22.8 µM in experiment [2]; 29.3 µM in [3]; 35.4 µM in experiment [4]; 47.4 µM in experiment [5]; 27.9 µM in experiment [6]. The GI50 in experiment [7] is 18.1 µM; in [8], 34.2 µM; in [9], 30.2 µM; in [10] it was 86.3 µM. The TGI in [1] was 28.1 µM; in experiment [2] it was over 100 µM; in experiment [3] it was over 100 µM; in experiment [4] it was over 100 µM; in [5], over 100 µM; in experiment [6] it was over 100 µM. Further, the TGI in [7] is 92.2 µM; in [8] it was over 100 µM; in experiment [9], over 100 µM; in [10], over 100 µM.

As for `C/C(=N/NC(N)=S)C(CN1CCOCC1)C(C1=C(O)c2ccccc2OC1)c1ccccc1` (stereo not given), the TGI in [1], in [2], in experiment [3], in [4], in experiment [5] and in experiment [6] was over 100 µM in each case. Moreover, the TGI in experiment [7], in [8], in experiment [9] and in experiment [10] was over 100 µM throughout.

For `O=C1C=C(NCCc2ccccc2)c2ccccc2C1=O`, the TGI in experiment [1] came out at 2.93 µM; in experiment [2], 11.4 µM; in [3] it was 3.6 µM; in experiment [4], 2.31 µM; in [5] it was 5.18 µM; in [6], 3.37 µM. Also, the TGI in [7] is 21.3 µM; in [8] it was 2.47 µM; in experiment [9], 16.1 µM; in [10], 27 µM.

For `COC(=O)c1c(C(=O)O)c(-c2ccccc2)c(-c2ccccc2)c(-c2ccccc2)c1-c1ccccc1`, the GI50 in [1] is over 100 µM; in [2], 14.7 µM; in experiment [3] it was over 100 µM; in experiment [4], over 100 µM; in experiment [5], over 100 µM; in experiment [6] it was over 100 µM. The GI50 in [7], in experiment [8], in experiment [9] and in experiment [10] was over 100 µM in each case. Also, the TGI in [1] was over 100 µM; in [2], 43.5 µM; in experiment [3] it was over 100 µM; in experiment [4] it was over 100 µM; in experiment [5] it was over 100 µM; in [6] it was over 100 µM. Also, the TGI in experiment [7], in experiment [8], in experiment [9] and in experiment [10] was over 100 µM throughout.

In the case of `CSC(=S)NCc1cn(C)c2ccccc12`, the GI50 in [1] was 54.8 µM; in [2] it was 22.3 µM; in experiment [3], 17.5 µM; in [4], 13.9 µM; in [5], 34.2 µM; in experiment [6], 26.5 µM. Besides, the GI50 was 26.1 µM in experiment [7], 24.6 µM in [8], 28.6 µM in [9] and 30.2 µM in experiment [10]. The TGI in experiment [1] was over 100 µM; in experiment [2] it was over 100 µM; in [3] it was 65.9 µM; in experiment [4], 32.8 µM; in [5], over 100 µM; in [6], 94.1 µM. For the same compound, the TGI is over 100 µM in experiment [7], 92.4 µM in [8], over 100 µM in experiment [9] and over 100 µM in [10].

As for `Cn1cnnc1Sc1c([N+](=O)[O-])nc(-c2ccc([N+](=O)[O-])cc2)n1C`, the TGI is 29.5 µM in experiment [1]; 28 µM in experiment [2]; 28.3 µM in [3]; 30.8 µM in [4]; 29.8 µM in [5]; 26.8 µM in experiment [6]. The TGI in [7] is 33.4 µM; in experiment [8], 29.5 µM; in experiment [9], 30.2 µM; in experiment [10], over 100 µM.

`Cc1cc(C)c(-c2c(O)c(Br)c(-c3c(C)cc(C)c(Br)c3C)c(O)c2Br)c(C)c1Br`: the GI50 in experiment [1] is 2.52 µM; in experiment [2] it was 1.29 µM; in experiment [3], 1.73 µM; in experiment [4], 1.77 µM; in experiment [5] it was 2 µM; in [6], 1.74 µM. Further, the GI50 in experiment [7] was 3.59 µM; in experiment [8], 1.65 µM; in experiment [9], 2.28 µM; in experiment [10], 4.77 µM. Also, the TGI amounted to 12.2 µM in experiment [1]; 8.22 µM in experiment [2]; 3.54 µM in experiment [3]; 4.24 µM in experiment [4]; 6.2 µM in [5]; 3.39 µM in [6]. The TGI was found to be 13.9 µM in [7], 5.8 µM in [8], 8.54 µM in [9] and 23.8 µM in experiment [10].

Take `COC(OC)c1cccnc1C`: the TGI in experiment [1], in experiment [2], in [3], in experiment [4], in [5] and in experiment [6] was over 100 µM each time. Besides, the TGI in [7], in experiment [8], in experiment [9] and in experiment [10] was over 100 µM throughout.

For the compound `CC(=O)/C(=N\N=C(N)N)c1ccccc1`, the TGI in experiment [1], in experiment [2], in experiment [3], in [4], in experiment [5] and in [6] was over 100 µM in each case. Moreover, the TGI in experiment [7], in [8], in [9] and in [10] was over 100 µM throughout.

(Values after PubChem BioAssay (NCI).)
